Assay results published in the supplement of paper PMC10307832.

Key:
Assay in all cases: relative viability (nuclei count vs DMSO), 5 days (fraction); higher = more cells survive
[1] = compound: CN(C)C/C=C/C(=O)Nc1cc2c(Nc3ccc(F)c(Cl)c3)ncnc2cc1O[C@H]1CCOC1 [Afatinib] + CC(C)C[C@H](NC(=O)[C@H](Cc1ccccc1)NC(=O)c1cnccn1)B(O)O [Bortezomib] (partner 0.002 µM)
Method in brief: (§1)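 One day after seeding in 1536-well plates, lung cancer cell lines were dosed by pin tool. Dosing was either single-drug or a fixed anchor-drug dose plus five library-drug doses (not always all listed) in √10 steps. After 5 days, nuclei were stained in one fix-and-stain step and counted on 4× images, and relative viability is the nuclei count of treated wells over that of vehicle wells, given as the median of duplicate plates.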

[2] = compound: CN(C)C/C=C/C(=O)Nc1cc2c(Nc3ccc(F)c(Cl)c3)ncnc2cc1O[C@H]1CCOC1 [Afatinib] + CC(=O)Nc1cccc(-n2c(=O)n(C3CC3)c(=O)c3c(Nc4ccc(I)cc4F)n(C)c(=O)c(C)c32)c1 [Trametinib] (partner 0.02 µM)
Method in brief: as §1

[3] = compound: CN(C)C/C=C/C(=O)Nc1cc2c(Nc3ccc(F)c(Cl)c3)ncnc2cc1O[C@H]1CCOC1 [Afatinib] + O=C(c1cc(Cc2n[nH]c(=O)c3ccccc23)ccc1F)N1CCN(C(=O)C2CC2)CC1 [Olaparib] (partner 8 µM)
Method in brief: as §1

[4] = compound: CN(C)C/C=C/C(=O)Nc1cc2c(Nc3ccc(F)c(Cl)c3)ncnc2cc1O[C@H]1CCOC1 [Afatinib] + CS(=O)(=O)N1CCN(Cc2cc3nc(-c4cccc5[nH]ncc45)nc(N4CCOCC4)c3s2)CC1 [Pictilisib] (partner 1 µM)
Method in brief: as §1

Row | Cell Line | relative viability ([1]; first compound 0.005 µM) | relative viability ([1]; first compound 0.01581 µM) | relative viability ([1]; first compound 0.05 µM) | relative viability ([1]; first compound 0.1581 µM) | relative viability ([1]; first compound 0.5 µM) | relative viability ([2]; first compound 0.005 µM) | relative viability ([2]; first compound 0.01581 µM) | relative viability ([2]; first compound 0.05 µM) | relative viability ([2]; first compound 0.1581 µM) | relative viability ([2]; first compound 0.5 µM) | relative viability ([3]; first compound 0.005 µM) | relative viability ([3]; first compound 0.01581 µM) | relative viability ([3]; first compound 0.05 µM) | relative viability ([3]; first compound 0.1581 µM) | relative viability ([3]; first compound 0.5 µM) | relative viability ([4]; first compound 0.005 µM) | relative viability ([4]; first compound 0.01581 µM) | relative viability ([4]; first compound 0.05 µM) | relative viability ([4]; first compound 0.1581 µM) | relative viability ([4]; first compound 0.5 µM)
1 | NCI-H1792 | 0.841 | 0.759 | 0.975 | 0.906 | 0.938 | 0.56 | 0.393 | 0.562 | 0.538 | 0.427 | 0.437 | 0.531 | 0.506 | 0.526 | 0.489 | 0.303 | 0.325 | 0.255 | 0.241 | 0.243
2 | NCI-H1915 | 0.994 | 1 | 0.938 | 1 | 0.952 | 0.309 | 0.304 | 0.314 | 0.3 | 0.301 | 0.255 | – | 0.244 | 0.27 | 0.259 | 1.05 | 0.993 | 0.951 | 0.912 | 0.855
3 | NCI-H1975 | 0.358 | 0.345 | 0.309 | 0.171 | 0.189 | 0.342 | 0.288 | 0.407 | 0.242 | 0.195 | 0.917 | 0.771 | 0.778 | 0.59 | 0.321 | 0.293 | 0.185 | 0.164 | 0.17 | 0.0947
4 | NCI-H1993 | 0.891 | 0.633 | 0.678 | 0.692 | 0.706 | 0.593 | 0.442 | 0.58 | 0.546 | 0.53 | 0.828 | 0.883 | 0.641 | 0.557 | 0.704 | 0.93 | 0.937 | 0.983 | 1.03 | 0.868
5 | NCI-H2009 | 1.09 | 1.01 | 0.991 | 1 | 1.03 | 0.314 | 0.217 | 0.319 | 0.268 | 0.247 | 0.578 | 0.699 | 0.743 | 0.648 | 0.665 | 0.875 | 0.822 | 0.95 | 0.786 | 0.74
6 | NCI-H2023 | 0.954 | 0.884 | 0.984 | 0.899 | 1.14 | 0.527 | 0.505 | 0.489 | 0.398 | 0.393 | 0.514 | 0.444 | 0.489 | 0.464 | 0.481 | 0.248 | 0.233 | 0.261 | 0.216 | 0.239
7 | NCI-H2085 | 1.01 | 0.902 | 0.932 | 0.894 | 0.975 | 0.433 | 0.507 | 0.692 | 0.513 | 0.457 | 0.751 | 0.691 | 0.659 | 0.603 | 0.648 | 0.486 | 0.438 | 0.459 | 0.494 | 0.435
